Active and inactive are the calls of the source. The rule behind the calls is not given here. A value given as a limit tells only on which side of the number the result lay.

The species named for the assay is Bos taurus. Briefly: Inhibition of calf thymus topoisomerase 1 relative to Hoechst 33342.
On to `Nc1ccc2[nH]c(-c3ccc4nc(-c5ccc6nc[nH]c6c5)[nH]c4c3)nc2c1`, for which the Ratio came out at 1.

`COc1ccc(-c2nc3cc(-c4nc5cc(CCN(C)C)ccc5[nH]4)ccc3[nH]2)cc1`: the Ratio was found to be 5.

In the case of `c1cncc(-c2ccc3[nH]c(-c4ccc5[nH]c(-c6ccc7[nH]cnc7c6)nc5c4)nc3c2)c1`, the Ratio worked out at 2.

Take `Cc1cccc(-c2nc3cc(-c4nc5cc(N6CCN(C)CC6)ccc5[nH]4)ccc3[nH]2)c1`: the Ratio turned out to be 1.

In the case of `COc1ccc2[nH]c(-c3ccc4nc(-c5ccc6nc[nH]c6c5)[nH]c4c3)nc2c1`, the Ratio turned out to be 0.05.

On to `COc1ccc(-c2nc3cc(Br)ccc3[nH]2)cc1`, for which the Ratio was > 300000.

Regarding `c1ccc(-c2ccc3[nH]c(-c4ccc5[nH]c(-c6ccc7[nH]ccc7c6)nc5c4)nc3c2)cc1`, the Ratio came to 50.

Consider `Brc1cc2nc(-c3ccc4nc(-c5ccc6nc[nH]c6c5)[nH]c4c3)[nH]c2cc1Br`, for which the Ratio came to 1.

In the case of `c1ccc(-c2cc3nc(-c4ccc5nc(-c6ccc7nc[nH]c7c6)[nH]c5c4)[nH]c3cc2-c2ccccc2)cc1`, the Ratio was found to be 1.

Regarding `COc1ccc(-c2nc3ccc(-c4nc5cc(-c6ccccc6)ccc5[nH]4)cc3[nH]2)cc1`, the Ratio was found to be 40.

As to `Brc1ccc2[nH]c(-c3ccc4nc(-c5ccc6nc[nH]c6c5)[nH]c4c3)nc2c1`, the Ratio amounted to 1.

As for `CCCc1ccc2[nH]c(-c3ccc4[nH]c(-c5ccc6[nH]cnc6c5)nc4c3)nc2c1`, the Ratio turned out to be 0.5.

Consider `COc1ccc(-c2nc3cc(CN)ccc3[nH]2)cc1`, for which the Ratio is > 300000.

`Clc1nc2ccc(-c3nc4ccc(-c5nc6cc(Br)c(Br)cc6[nH]5)cc4[nH]3)cc2[nH]1`: the Ratio was 1.

On to `COc1ccc(-c2cc3cc([N+](=O)[O-])ccc3[nH]2)cc1`, for which the inhibition entry is “inactive”.

Take `Oc1ccc2[nH]c(-c3ccc4nc(-c5ccc6nc[nH]c6c5)[nH]c4c3)nc2c1`: the Ratio stood at 0.5.

For the molecule `Cc1ccc(-c2nc3cc(-c4nc5cc(C(N)=O)ccc5[nH]4)ccc3[nH]2)cc1`, the Ratio is 10.

On to `FC(F)(F)c1nc2ccc(-c3nc4ccc(-c5nc6cc(Br)c(Br)cc6[nH]5)cc4[nH]3)cc2[nH]1`, for which the Ratio worked out at 1.

As to `c1ccc(-c2ccc3[nH]c(-c4ccc5nc[nH]c5c4)nc3c2)cc1`, the Ratio stood at 2.

As to `CC(C)c1nc2ccc(-c3nc4cc(-c5ccccc5)ccc4[nH]3)cc2[nH]1`, the Ratio was 1.

For `Cc1nc2ccc(-c3nc4cc(-c5ccccc5)ccc4[nH]3)cc2[nH]1`, the Ratio was found to be 4.

Consider `c1ccc2c(c1)ccc1[nH]c(-c3ccc4nc[nH]c4c3)nc12`, for which the Ratio amounted to 2.

For the molecule `Cc1ccc(-c2nc3cc(-c4nc5cc(N6CCN(C)CC6)ccc5[nH]4)ccc3[nH]2)cc1`, the Ratio was 1.

Take `NC(=O)c1ccc2[nH]c(-c3ccc4[nH]c(-c5ccc6ccccc6c5)nc4c3)nc2c1`: the Ratio stood at 100.

For the molecule `COc1cc2nc(-c3ccc4nc(-c5ccc6nc[nH]c6c5)[nH]c4c3)[nH]c2cc1-c1ccccc1`, the Ratio turned out to be 0.5.

As to `c1ccc(-c2cccc3[nH]c(-c4ccc5nc[nH]c5c4)nc23)cc1`, the Ratio was 10.

As to `NC(=O)c1ccc2[nH]c(-c3ccc4[nH]c(-c5cccc6ccccc56)nc4c3)nc2c1`, the Ratio stood at 20.

Take `c1ccc2c(-c3ccc4[nH]c(-c5ccc6nc[nH]c6c5)nc4c3)cccc2c1`: the Ratio amounted to 4.
